Molecular target: T1, DNA gyrase subunit B (GyrB) (Mycobacteroides abscessus, UniProt B1ME45)
T1 construct: recombinant M. abscessus ATCC 19977 DNA gyrase (A2B2 heterotetramer); with DNA gyrase subunit A (GyrA)
Test: DNA supercoiling inhibition assay (relaxed pBR322, agarose gel)
Format: biochemical

T1 sequence (B1ME45 entry or part of it): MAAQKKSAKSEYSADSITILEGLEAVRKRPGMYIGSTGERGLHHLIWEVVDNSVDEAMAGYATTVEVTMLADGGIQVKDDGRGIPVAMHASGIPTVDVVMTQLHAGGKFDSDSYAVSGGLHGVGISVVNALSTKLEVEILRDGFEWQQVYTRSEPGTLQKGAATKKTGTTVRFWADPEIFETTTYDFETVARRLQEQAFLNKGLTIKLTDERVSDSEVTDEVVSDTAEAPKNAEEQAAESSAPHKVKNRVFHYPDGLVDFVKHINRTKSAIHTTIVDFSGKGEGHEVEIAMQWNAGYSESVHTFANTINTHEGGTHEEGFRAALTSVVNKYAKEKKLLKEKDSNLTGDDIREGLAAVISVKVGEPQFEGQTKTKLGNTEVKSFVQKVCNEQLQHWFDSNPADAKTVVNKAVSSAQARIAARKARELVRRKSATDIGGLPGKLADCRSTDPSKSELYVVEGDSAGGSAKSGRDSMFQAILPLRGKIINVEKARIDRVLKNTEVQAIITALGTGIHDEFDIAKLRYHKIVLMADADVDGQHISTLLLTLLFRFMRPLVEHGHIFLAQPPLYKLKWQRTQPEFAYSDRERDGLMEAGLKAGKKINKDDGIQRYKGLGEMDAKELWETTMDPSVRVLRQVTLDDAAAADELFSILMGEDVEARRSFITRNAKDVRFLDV
T1 sequence (B1ME58 entry or part of it, further chain): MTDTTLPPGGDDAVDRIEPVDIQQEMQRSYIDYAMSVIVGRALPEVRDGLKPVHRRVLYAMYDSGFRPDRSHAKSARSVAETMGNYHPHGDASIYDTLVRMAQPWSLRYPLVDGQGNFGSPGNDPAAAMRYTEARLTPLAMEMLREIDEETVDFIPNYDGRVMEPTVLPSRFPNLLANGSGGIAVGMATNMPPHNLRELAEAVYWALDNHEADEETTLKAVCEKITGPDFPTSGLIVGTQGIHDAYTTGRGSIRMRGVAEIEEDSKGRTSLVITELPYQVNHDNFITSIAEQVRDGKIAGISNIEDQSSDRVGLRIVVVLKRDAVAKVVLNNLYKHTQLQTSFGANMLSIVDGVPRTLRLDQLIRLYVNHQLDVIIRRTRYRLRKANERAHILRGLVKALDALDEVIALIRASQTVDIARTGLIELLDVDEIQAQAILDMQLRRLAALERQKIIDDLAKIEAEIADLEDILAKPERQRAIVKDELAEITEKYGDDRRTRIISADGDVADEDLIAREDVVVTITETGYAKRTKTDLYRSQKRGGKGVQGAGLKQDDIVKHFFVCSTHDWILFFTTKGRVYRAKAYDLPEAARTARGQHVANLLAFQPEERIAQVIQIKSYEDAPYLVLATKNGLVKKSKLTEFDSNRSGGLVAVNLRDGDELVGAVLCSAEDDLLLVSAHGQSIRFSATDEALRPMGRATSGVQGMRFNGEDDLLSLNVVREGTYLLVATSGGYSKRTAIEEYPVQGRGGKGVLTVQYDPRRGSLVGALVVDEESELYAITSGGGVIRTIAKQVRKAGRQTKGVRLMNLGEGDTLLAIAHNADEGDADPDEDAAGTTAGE

In the case of CCNC(=O)Nc1nc2cc(-c3cnc(C(C)(C)O)nc3)c(F)c([C@H]3CCCO3)c2[nH]1 [SPR719], the IC50 is reported as 1 µM.
